Source: US11053516B2, “Glucose composition, microbial fermentation raw material, and method of producing chemical product” (Toray Industries, Inc., priority 2016, dated 2021)

From the text: Further, the glucose composition was adjusted to a final pH of 7 using 6 N sodium hydroxide.

For `O=C(O)/C=C/c1ccc(O)cc1` [Coumaric acid, trans-p-coumaric acid], the Solubility in water was “not dissolved”.
